Among the test systems are 786-0; ACHN; COLO 205; HCT-15; HL-60; HOP-62; MDA-MB-435; NCI-H23; NCI-H522; NCI/ADR-RES; OVCAR-5; OVCAR-8; SF-295; SK-MEL-2; SN12C; SNB-19; SNB-75; TK-10; UACC-62.
Common to all, as to test: inhibition of tumour cell growth, NCI panel, 48 h

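Values below derive from 48-hour exposures of cells grown in 96-well plates, with endpoints linearly interpolated between the two concentrations bracketing the appropriate inhibition level. Here, GI50 denotes the concentration required for 50% inhibition of growth.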 Active and inactive are the calls of the source. No stated cut-off is given here; in the data, active = GI50 up to about 1.1 µM and inactive = higher.

For the compound `Cc1ccc(-c2nc(-c3nccc4ccccc34)oc2-c2ccccc2)cc1`, the GI50 with 786-0 is 26.6 µM (inactive); in the test on ACHN, 92.9 µM (inactive); in the test with COLO 205, 42.9 µM (inactive); in the test with HCT-15, 22.9 µM; with HL-60, > 100 µM (inactive); with HOP-62, > 100 µM (inactive). For the same compound, the GI50 was 64.9 µM (inactive) in the test with MDA-MB-435; > 100 µM (inactive) with NCI-H23; 43 µM (inactive) in the test on NCI-H522; 98.2 µM (inactive) with NCI/ADR-RES; > 100 µM (inactive) in the test with OVCAR-5; 79.1 µM (inactive) in the test with OVCAR-8. Also, the GI50 with SF-295 was 68.4 µM (inactive); in the test with SK-MEL-2 it was 51.9 µM (inactive); in the test with SN12C it was 24.8 µM (inactive); in the test with SNB-19 it was > 100 µM (inactive); in the test with SNB-75, 31.6 µM (inactive); in the test with TK-10, 66.8 µM (inactive). The GI50 in the test on UACC-62 was 46.6 µM (inactive).
On to `Cc1cccc2c(N)c3cccc(C(=O)NCC[N+]4(Cc5ccc([N+](=O)[O-])cc5)CCOCC4)c3nc12`, for which the GI50 was 12.8 µM (inactive) in the test on 786-0; 29 µM (inactive) with ACHN; 45.9 µM (inactive) in the test with COLO 205; 45.1 µM in the test on HCT-15; 18.2 µM (inactive) in the test with HL-60; 25.7 µM (inactive) in the test on HOP-62. For the same compound, the GI50 in the test with MDA-MB-435 is 80.5 µM (inactive); in the test on NCI-H23, 35.9 µM (inactive); with NCI-H522, 13.5 µM (inactive); in the test with NCI/ADR-RES, > 95.1 µM (inactive); with OVCAR-5, > 100 µM (inactive); with OVCAR-8, 30.4 µM (inactive). For the same compound, the GI50 is 27.5 µM (inactive) in the test with SF-295; > 79.1 µM (inactive) with SK-MEL-2; 3.99 µM (inactive) with SN12C; 18.2 µM (inactive) in the test with SNB-19; 16 µM (inactive) in the test with SNB-75; > 79.1 µM (inactive) in the test with TK-10. The GI50 in the test on UACC-62 was > 51.4 µM (inactive).
As to `Cc1ccc(N(C=O)c2c([N+](=O)[O-])cc([N+](=O)[O-])c3c2=[N+]([O-])CN=3)cc1`, the GI50 with 786-0 was 27 µM (inactive); in the test on ACHN, 24.8 µM (inactive); with COLO 205 it was 28.5 µM (inactive); in the test with HCT-15, 15.4 µM; in the test on HL-60 it was 23 µM (inactive); in the test on HOP-62, 60 µM (inactive). The GI50 with MDA-MB-435 is 30.8 µM (inactive); in the test with NCI-H23 it was 23.5 µM (inactive); in the test with NCI-H522 it was 19.2 µM (inactive); with NCI/ADR-RES, 30.7 µM (inactive); in the test on OVCAR-5 it was > 100 µM (inactive); in the test on OVCAR-8, 28.5 µM (inactive). The GI50 was 65.5 µM (inactive) in the test on SF-295; 17.7 µM (inactive) in the test with SK-MEL-2; 31.6 µM (inactive) in the test on SN12C; 66.8 µM (inactive) in the test on SNB-19; 33.7 µM (inactive) with SNB-75; 35.9 µM (inactive) in the test with TK-10. In the test with UACC-62, the GI50 was 11.9 µM (inactive).
For `CC(=O)Nc1ccc2cc3c(nc2n1)c1cccnc1n3S(=O)(=O)c1ccccc1`, the GI50 with 786-0 is 8.02 µM (inactive); with ACHN, > 100 µM (inactive); with COLO 205 it was > 100 µM (inactive); in the test on HCT-15, above 100 µM; in the test with HL-60, > 100 µM (inactive); in the test with HOP-62, > 100 µM (inactive). For the same compound, the GI50 was > 100 µM (inactive) with MDA-MB-435; 10.5 µM (inactive) with NCI-H23; > 100 µM (inactive) with NCI-H522; > 100 µM (inactive) in the test on NCI/ADR-RES; > 100 µM (inactive) in the test on OVCAR-5; > 100 µM (inactive) in the test on OVCAR-8. Moreover, the GI50 with SF-295 is > 100 µM (inactive); in the test with SK-MEL-2 it was > 100 µM (inactive); with SN12C, > 100 µM (inactive); in the test on SNB-19 it was > 100 µM (inactive); in the test with SNB-75 it was 59.6 µM (inactive); with TK-10 it was > 100 µM (inactive). The GI50 in the test on UACC-62 was > 100 µM (inactive).
For the compound `COC(=O)[C@]1(C)CCC[C@]2(C)[C@H]3CC[C@]4(C(C)C)OO[C@@H](O4)[C@]34O[C@@H]4C[C@H]21`, the GI50 was 1.6 µM (inactive) in the test with 786-0; 0.56 µM (active) with ACHN; 2.14 µM (inactive) in the test on COLO 205; 2.16 µM with HCT-15; 1.68 µM (inactive) in the test on HL-60; 2.12 µM (inactive) in the test with HOP-62. In addition, the GI50 with MDA-MB-435 is 1.79 µM (inactive); in the test on NCI-H23, 6.56 µM (inactive); in the test on NCI-H522 it was 1.43 µM (inactive); in the test on NCI/ADR-RES, 3.57 µM (inactive); in the test with OVCAR-5 it was 5.18 µM (inactive); with OVCAR-8, 3.61 µM (inactive). Also, the GI50 in the test on SF-295 is 3.63 µM (inactive); in the test with SK-MEL-2, 14.3 µM (inactive); in the test on SN12C, 3.02 µM (inactive); with SNB-19, 10.8 µM (inactive); in the test with SNB-75, 3.87 µM (inactive); in the test on TK-10 it was 4.88 µM (inactive). Besides, in the test with UACC-62, the GI50 was 5.3 µM (inactive).
With `O=C(CSc1nc2ccc(Cl)cc2c(=O)n1-c1ccccc1)N/N=C1\C(=O)Nc2ccc(F)cc21`, the GI50 is 2.1 µM (inactive) in the test on 786-0; 1.98 µM (inactive) with ACHN; 2.21 µM (inactive) in the test on COLO 205; 1.96 µM with HCT-15; 3.66 µM (inactive) with HL-60; 1.75 µM (inactive) in the test on HOP-62. Also, the GI50 in the test with MDA-MB-435 is 2.43 µM (inactive); with NCI-H23 it was 2.92 µM (inactive); in the test with NCI-H522 it was 1.81 µM (inactive); with NCI/ADR-RES, 2.65 µM (inactive); in the test on OVCAR-5, 2.9 µM (inactive); in the test on OVCAR-8, 1.69 µM (inactive). The GI50 with SF-295 is 4.2 µM (inactive); in the test on SK-MEL-2, 1.95 µM (inactive); in the test on SN12C it was 2.08 µM (inactive); with SNB-19, 2.97 µM (inactive); in the test on SNB-75 it was 2.24 µM (inactive); in the test with TK-10 it was 4.21 µM (inactive). Besides, the GI50 with UACC-62 is 2.39 µM (inactive).
Consider `Cc1ccc(NC(=O)CC(=O)N2N=C(N3CCCCC3)CC2c2ccccc2)cc1` (stereo not given), for which the GI50 in the test on 786-0 is > 100 µM (inactive); in the test with ACHN it was > 100 µM (inactive); with COLO 205, > 100 µM (inactive); in the test with HCT-15, above 100 µM; in the test on HL-60, > 100 µM (inactive); with HOP-62 it was > 100 µM (inactive). For the same compound, the GI50 in the test on MDA-MB-435, in the test with NCI-H23, with NCI-H522, in the test on NCI/ADR-RES, with OVCAR-5 and in the test on OVCAR-8 was > 100 µM (inactive) throughout. In addition, the GI50 in the test on SF-295, in the test with SK-MEL-2, in the test with SN12C, in the test on SNB-19, in the test with SNB-75 and in the test with TK-10 was > 100 µM (inactive) throughout. For the same compound, in the test on UACC-62, the GI50 was > 100 µM (inactive).
`Cc1cc(C)n(-c2nc3ccccc3c(=O)[nH]2)n1`: the GI50 with 786-0 was 2.24 µM (inactive); in the test on ACHN, 2.49 µM (inactive); in the test on COLO 205, 2.43 µM (inactive); with HCT-15, 2.11 µM; in the test with HL-60 it was 1.32 µM (inactive); in the test on HOP-62 it was 2.29 µM (inactive). Moreover, the GI50 in the test with MDA-MB-435 is 1.86 µM (inactive); with NCI-H23, 7.96 µM (inactive); in the test on NCI-H522 it was 2.81 µM (inactive); in the test with NCI/ADR-RES, 1.53 µM (inactive); with OVCAR-5, > 77.3 µM (inactive); in the test on OVCAR-8, 0.863 µM (active). In addition, the GI50 was 2.1 µM (inactive) in the test with SF-295; 8.47 µM (inactive) in the test on SK-MEL-2; 4.34 µM (inactive) in the test on SN12C; 11.9 µM (inactive) in the test with SNB-19; 14.1 µM (inactive) with SNB-75; > 50.8 µM (inactive) in the test with TK-10. For the same compound, the GI50 in the test on UACC-62 is 2.78 µM (inactive).
As to `CC(C)C1CC(CO)(CNc2nc(N)nc(Cl)c2/C=N\O)C1` (stereo not given), the GI50 is 18.2 µM (inactive) in the test on 786-0; 8.51 µM (inactive) in the test with ACHN; 2.37 µM (inactive) with COLO 205; 15.7 µM in the test with HCT-15; 4.6 µM (inactive) with HL-60; 21.9 µM (inactive) in the test with HOP-62. In addition, the GI50 with MDA-MB-435 is 12.6 µM (inactive); with NCI-H23, 0.519 µM (active); in the test on NCI-H522 it was 4.53 µM (inactive); in the test with NCI/ADR-RES, 3.42 µM (inactive); with OVCAR-5 it was 20.1 µM (inactive); in the test on OVCAR-8, 15.5 µM (inactive). Moreover, the GI50 is 1.01 µM (active) with SF-295; 12 µM (inactive) in the test with SK-MEL-2; 23.2 µM (inactive) in the test on SN12C; 20.1 µM (inactive) with SNB-19; 12.5 µM (inactive) with SNB-75; 17.6 µM (inactive) in the test with TK-10. The GI50 with UACC-62 is 11.6 µM (inactive).
As to `N#CC(=N)c1ncn(-c2ccc(N)cc2)c1N`, the GI50 is > 100 µM (inactive) in the test with 786-0; > 100 µM (inactive) in the test on ACHN; > 100 µM (inactive) in the test with COLO 205; above 100 µM with HCT-15; > 100 µM (inactive) in the test on HL-60; > 100 µM (inactive) in the test on HOP-62. Also, the GI50 in the test with MDA-MB-435, in the test on NCI-H23, in the test on NCI-H522, with NCI/ADR-RES, in the test on OVCAR-5 and in the test with OVCAR-8 was > 100 µM (inactive) in each case. For the same compound, the GI50 with SF-295, in the test with SK-MEL-2, with SN12C, with SNB-19, with SNB-75 and in the test on TK-10 was > 100 µM (inactive) each time. Moreover, the GI50 in the test on UACC-62 is > 100 µM (inactive).

For the origin of these results see ChEMBL document CHEMBL1201862, “PubChem BioAssay data set” (2004).
